Data reported in patent publication US20070112068A1, “Nitrile compound and its use in pest control” (priority 2003, published 2007).

Key:
Format in all cases: in vivo
[1] = tested on: Blattalla germanica; test: Experimental Example 3: treated filter paper with sucrose bait, German cockroach; details: 500 ppm, 0.7 ml on filter paper; two male imagoes; after 6 days
Experimental: A filter paper having a diameter of 5.5 cm was spread on the bottom of a polyethylene cup having a diameter of 5.5 cm and 0.7 ml of the experimental pesticidal solution was added dropwise onto the filter paper. As a bait 30 mg of sucrose was uniformly placed on the filter paper. Into the polyethylene cup, two male Blattalla germanica imagoes were released and the cup was sealed with a lid. After 6 days, the number of surviving Blattalla germanica was examined and the death rate of the pest was calculated.

[2] = tested on: Periplaneta fuliginosa; test: Experimental Example 16: treated filter paper in paper box, Periplaneta fuliginosa; details: 0.1 ml of 5% (w/v) acetone solution on filter paper in paper box; after 7 days
Experimental: (§1) 5% (w/v) solutions of the present compounds (23), (24) and (31) in acetone were prepared. 0.1 ml of the solution was added dropwise onto a filter paper with 2 cm×2 cm and then air-dried. This filter paper was attached to the center of the inside bottom of a paper box having 10 cm (width)×2 cm (height)×7 cm (depth) with a two-sided tape. One hole of 2 mm in width and 2 cm in height was made through one side of this box. This box was placed in a plastic vat with 25 cm×20 cm×8 cm in height and therein 3 females and 3 males of Periplaneta fuliginosa were released. The inside wall of the plastic vat used in this experiment was coated with talc for preventing the escape of cockroaches. The plastic vat contained feed and water and left at 25° C. After 7 days, Periplaneta fuliginosa was observed and the death rate of the pest was calculated. This experiment was repeated two times.

[3] = tested on: Blattella germanica; test: Experimental Example 15: treated filter paper in paper box, Blattella germanica; details: 0.1 ml of 2.5% (w/v) acetone solution on filter paper in paper box; after 7 days
Experimental: as §1, with “2.5% (w/v)” for “5% (w/v)”, “of 5” for “of 2”, “therein 10” for “therein 3”, “and 10” for “and 3”, “of Blattella germanica” for “of Periplaneta fuliginosa”, “days, Blattella germanica” for “days, Periplaneta fuliginosa”

[4] = tested on: Blattella germanica; test: Experimental Example 14: topical application, Blattella germanica; details: 1 μl of 1% (w/v) acetone solution onto sternum of thorax of female imagoes; after 7 days
Experimental: 1% (w/v) solutions of the present compounds (4), (20), (22), (23), (24), (29), (30), (31), (35), (36), (37), (38), (46), (53), (54), (56), (57), (59), (61), (66), (67), (68), (69), (70), (71), (79), (81), (83), (84), (89), and (90) in acetone were prepared. Onto the sternum of the thorax of female imagoes of Blattella germanica, 1 μl of the acetone solution was added dropwise. The imagoes were transferred to a plastic cup having a diameter of about 9 cm and a height of about 4.5 cm and left together with feed and water at 25° C. After 7 days, the number of surviving Blattella germanica was examined and the death rate of the pest was calculated. 10 imagoes of Blattella germanica were put in a cup and three replicate experiments were performed.

Measured: death rate of the pest

N#CC(C#N)(CCC(F)(F)F)CC(F)(F)C(F)(F)C(F)(F)F [(24)]
100%: [1] | [2] | [3] | [4]
